The values below come from PMC9863004, “Development of [^124/125I]IAZA as a New Proteinopathy Imaging Agent for Alzheimer’s Disease” (Molecules, 2023).

The structures appear in SMILES notation.

Test [1] concerns the target T1, Aβ amyloid plaques (amyloid β) (Homo sapiens, UniProt P05067).
T1 construct: gene APP; aggregated Aβ plaques in postmortem human AD brain slices
In words: displacement of […]IAZA at […], autoradiography in human AD brain slices.

The target of test [2] is T1, Aβ amyloid plaques (amyloid β). In words: autoradiographic radioligand competition with […]IBETA in human AD brain slices; direct [[…]I]IAZA binding.

T1 sequence (P05067 18-770): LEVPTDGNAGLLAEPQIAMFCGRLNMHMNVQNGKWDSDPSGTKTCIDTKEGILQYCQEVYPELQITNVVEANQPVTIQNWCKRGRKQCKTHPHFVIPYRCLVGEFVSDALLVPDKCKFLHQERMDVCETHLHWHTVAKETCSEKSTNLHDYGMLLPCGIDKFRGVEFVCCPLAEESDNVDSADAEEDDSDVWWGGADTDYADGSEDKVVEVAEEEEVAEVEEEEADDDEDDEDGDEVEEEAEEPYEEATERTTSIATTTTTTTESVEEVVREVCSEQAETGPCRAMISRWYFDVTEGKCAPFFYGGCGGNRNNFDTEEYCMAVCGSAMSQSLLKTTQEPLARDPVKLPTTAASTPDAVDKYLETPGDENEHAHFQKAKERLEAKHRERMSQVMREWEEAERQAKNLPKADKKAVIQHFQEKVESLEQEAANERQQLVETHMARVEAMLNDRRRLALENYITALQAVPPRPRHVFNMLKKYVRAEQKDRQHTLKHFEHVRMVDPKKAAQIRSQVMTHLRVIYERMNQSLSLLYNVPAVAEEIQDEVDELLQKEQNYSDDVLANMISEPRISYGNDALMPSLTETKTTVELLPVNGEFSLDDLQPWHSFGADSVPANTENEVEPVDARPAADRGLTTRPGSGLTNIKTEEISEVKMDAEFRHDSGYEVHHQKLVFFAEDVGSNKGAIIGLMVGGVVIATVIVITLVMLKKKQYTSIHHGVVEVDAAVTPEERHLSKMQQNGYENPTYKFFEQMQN

Regarding `CN(C)c1ccc(-c2cc3cc(Br)ccc3o2)cn1` [BrBETA], in test [1], the inhibition at 10 µM was more than 95%.

As for `CN(C)c1ccc(N=Nc2ccc(I)cc2)cc1` [compound 5, 4′-iodo-4-dimethylaminoazobenzene], the inhibitory constant (Ki) in test [2] was 10.9 nM.

For orientation: inhibition means the change of the read-out against control, counted positive when it falls. The low end stands for a weak effect, the high end for a strong effect. A word on the Ki: it is the dissociation constant of the complex between target and ligand, obtained from inhibition or displacement.
